Laboratory results: patent publication US9045491B2, “Thienyl [3,2-D] pyrimidin-4-one compounds, preparation method, pharmaceutical compositions and use thereof” (SHANGHAI INSTITUTE OF MATERIA MEDICA, CHINESE ACADEMY OF …, priority 2011, dated 2015)

What was measured:
Assay type in all cases: biochemical
[1] = biological target: T1, human DPP 8 (Homo sapiens, UniProt Q6V1X1); assay: DPP 8 activity screening (Ala-Pro-AMC fluorescence); conditions: N.I. = No Inhibition
T1 construct: made in house; host or cells: insect cells, baculovirus Bac-to-Bac
How it was run: (§1)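 Insect-cell baculovirus-expressed human enzymes hydrolyse Ala-Pro-AMC; AMC release monitored kinetically as fluorescence rate (ex 355/em 460 nm). Primary screen at a single concentration (e.g. 20 μg/mL); dose–response fitted to variable-slope sigmoid with bottom/top fixed at 0 and 100.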

[2] = biological target: T2, FAP (Homo sapiens, UniProt Q12884); assay: FAP inhibition (Table 1); conditions: N.I. = No Inhibition
T2 sequence (Q12884 1-760): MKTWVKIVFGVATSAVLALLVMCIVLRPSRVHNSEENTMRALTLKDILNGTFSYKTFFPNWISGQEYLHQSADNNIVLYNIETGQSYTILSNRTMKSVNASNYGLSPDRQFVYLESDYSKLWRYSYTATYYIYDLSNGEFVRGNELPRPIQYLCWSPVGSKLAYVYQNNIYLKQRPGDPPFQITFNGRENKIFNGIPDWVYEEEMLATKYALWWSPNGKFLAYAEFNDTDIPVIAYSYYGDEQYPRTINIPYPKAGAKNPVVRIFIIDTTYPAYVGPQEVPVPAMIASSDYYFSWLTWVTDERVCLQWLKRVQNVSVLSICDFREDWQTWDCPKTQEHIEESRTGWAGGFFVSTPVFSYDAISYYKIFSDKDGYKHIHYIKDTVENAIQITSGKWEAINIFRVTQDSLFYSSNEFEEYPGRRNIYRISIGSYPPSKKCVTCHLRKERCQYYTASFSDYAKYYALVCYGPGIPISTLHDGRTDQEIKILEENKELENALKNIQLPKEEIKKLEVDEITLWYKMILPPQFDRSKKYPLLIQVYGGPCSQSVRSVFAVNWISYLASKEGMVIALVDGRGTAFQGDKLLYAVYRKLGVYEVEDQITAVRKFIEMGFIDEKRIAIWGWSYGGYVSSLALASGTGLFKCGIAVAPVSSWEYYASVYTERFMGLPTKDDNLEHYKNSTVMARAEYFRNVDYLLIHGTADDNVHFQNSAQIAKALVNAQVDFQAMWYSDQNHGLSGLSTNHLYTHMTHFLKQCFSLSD

[3] = biological target: T3, Human DPP 9 (Homo sapiens, UniProt Q86TI2); assay: DPP 9 activity screening (Ala-Pro-AMC fluorescence); conditions: N.I. = No Inhibition
T3 construct: made in house; host or cells: insect cells, baculovirus Bac-to-Bac
How it was run: as §1

[4] = biological target: dipeptidyl peptidase 7 (DPP 7) (Homo sapiens, UniProt Q9UHL4); assay: DPP 7 activity screening; conditions: N.I. = No Inhibition
How it was run: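 Sample dissolved in DMSO, final DMSO kept at a level not affecting activity; tested at a single concentration from preliminary screening (e.g. 20 μg/mL). Dose-response data fitted to sigmoidal variable-slope model with bottom and top fixed at 0 and 100.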

[5] = biological target: T4, human DPP IV (Homo sapiens, UniProt P27487); assay: DPP IV activity screening (Ala-Pro-AMC fluorescence)
T4 construct: extracellular fragment of protease DPP IV (aa29-766); made in house; host or cells: baculovirus expression system Bac-to-Bac
How it was run: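 DPP IV activity is taken as the linear rate of fluorescence change at 460 nm. Samples are dissolved in DMSO and screened at a single concentration (e.g. 20 μg/mL). Dose-response data are fit to a variable-slope sigmoidal model with bottom and top fixed at 0 and 100.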

T3 sequence (Q86TI2 whole entry): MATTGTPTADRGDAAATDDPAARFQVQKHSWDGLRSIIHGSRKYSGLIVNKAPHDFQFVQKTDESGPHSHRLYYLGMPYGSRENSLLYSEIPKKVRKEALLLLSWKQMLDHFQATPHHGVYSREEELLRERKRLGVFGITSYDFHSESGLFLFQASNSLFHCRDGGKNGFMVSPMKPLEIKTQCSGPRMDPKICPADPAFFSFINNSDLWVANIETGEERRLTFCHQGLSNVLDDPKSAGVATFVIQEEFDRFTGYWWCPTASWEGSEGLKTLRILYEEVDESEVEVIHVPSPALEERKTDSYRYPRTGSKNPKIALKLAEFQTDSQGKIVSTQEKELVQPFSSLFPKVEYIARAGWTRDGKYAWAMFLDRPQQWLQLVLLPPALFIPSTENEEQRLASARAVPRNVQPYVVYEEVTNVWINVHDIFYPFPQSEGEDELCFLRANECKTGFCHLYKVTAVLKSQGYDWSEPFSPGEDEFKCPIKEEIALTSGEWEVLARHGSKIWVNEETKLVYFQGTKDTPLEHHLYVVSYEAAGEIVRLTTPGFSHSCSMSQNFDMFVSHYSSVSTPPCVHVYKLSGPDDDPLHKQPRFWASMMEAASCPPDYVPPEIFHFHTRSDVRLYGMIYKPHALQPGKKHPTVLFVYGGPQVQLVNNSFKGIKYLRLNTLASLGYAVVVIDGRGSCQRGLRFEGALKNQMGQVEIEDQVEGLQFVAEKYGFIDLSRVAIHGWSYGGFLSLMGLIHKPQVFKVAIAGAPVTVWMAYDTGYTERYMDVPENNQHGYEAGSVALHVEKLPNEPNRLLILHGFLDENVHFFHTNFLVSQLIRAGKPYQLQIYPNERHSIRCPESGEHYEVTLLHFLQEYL
T1 sequence (Q6V1X1 whole entry): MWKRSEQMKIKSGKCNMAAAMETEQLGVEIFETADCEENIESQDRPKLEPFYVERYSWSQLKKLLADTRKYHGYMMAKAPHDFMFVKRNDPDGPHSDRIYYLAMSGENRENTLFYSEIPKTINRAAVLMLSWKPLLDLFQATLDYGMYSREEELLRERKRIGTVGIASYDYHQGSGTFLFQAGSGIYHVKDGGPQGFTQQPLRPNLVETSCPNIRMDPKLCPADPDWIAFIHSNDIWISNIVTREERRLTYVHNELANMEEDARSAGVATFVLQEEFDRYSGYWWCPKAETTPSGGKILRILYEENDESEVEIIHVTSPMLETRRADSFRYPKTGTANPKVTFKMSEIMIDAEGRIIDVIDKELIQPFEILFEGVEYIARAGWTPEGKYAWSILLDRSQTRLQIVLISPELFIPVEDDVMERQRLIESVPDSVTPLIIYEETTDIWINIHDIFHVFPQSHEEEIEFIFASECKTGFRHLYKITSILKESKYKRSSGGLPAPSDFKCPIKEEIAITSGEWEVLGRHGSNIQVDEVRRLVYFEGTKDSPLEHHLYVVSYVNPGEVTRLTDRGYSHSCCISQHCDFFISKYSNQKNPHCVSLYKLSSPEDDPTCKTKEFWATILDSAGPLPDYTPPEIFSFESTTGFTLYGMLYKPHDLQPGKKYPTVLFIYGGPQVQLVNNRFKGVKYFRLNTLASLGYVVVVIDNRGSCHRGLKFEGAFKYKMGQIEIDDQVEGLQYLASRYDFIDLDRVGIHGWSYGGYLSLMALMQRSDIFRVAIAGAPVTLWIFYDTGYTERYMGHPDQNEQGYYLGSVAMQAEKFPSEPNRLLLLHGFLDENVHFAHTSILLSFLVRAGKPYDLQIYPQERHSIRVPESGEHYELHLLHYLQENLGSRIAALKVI
T4 sequence (P27487 29-766): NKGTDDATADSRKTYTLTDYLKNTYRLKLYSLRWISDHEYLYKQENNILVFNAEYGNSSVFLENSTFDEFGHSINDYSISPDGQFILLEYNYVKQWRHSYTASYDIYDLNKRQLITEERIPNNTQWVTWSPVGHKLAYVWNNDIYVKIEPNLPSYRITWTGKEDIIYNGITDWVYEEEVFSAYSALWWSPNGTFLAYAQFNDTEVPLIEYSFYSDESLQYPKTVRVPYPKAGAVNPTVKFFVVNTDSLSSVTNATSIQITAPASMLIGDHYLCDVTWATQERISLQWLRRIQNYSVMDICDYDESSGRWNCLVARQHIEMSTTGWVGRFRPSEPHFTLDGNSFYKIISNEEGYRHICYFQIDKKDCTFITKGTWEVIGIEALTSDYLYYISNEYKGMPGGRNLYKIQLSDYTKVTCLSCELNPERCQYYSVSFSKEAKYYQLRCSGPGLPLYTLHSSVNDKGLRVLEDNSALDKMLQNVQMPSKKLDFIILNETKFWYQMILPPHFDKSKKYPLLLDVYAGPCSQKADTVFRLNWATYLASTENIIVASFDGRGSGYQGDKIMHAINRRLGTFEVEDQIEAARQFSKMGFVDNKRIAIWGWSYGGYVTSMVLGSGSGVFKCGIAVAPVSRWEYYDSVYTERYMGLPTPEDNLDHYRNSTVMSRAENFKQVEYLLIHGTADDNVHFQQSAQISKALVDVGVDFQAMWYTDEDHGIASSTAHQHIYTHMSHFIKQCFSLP

Structure (SMILES)	IC50 [1] [µM]	IC50 [2] [µM]	IC50 [3] [µM]	DPP 7 IC50 [4]	IC50 [5] [µM]	IC50 [4] [µM]	DPP 9 IC50 [3]	DPP 8 IC50 [1]	FAP IC50 [2]
N#Cc1ccccc1Cn1c(N2CCC[C@@H](N)C2)nc2c(C(=O)NC3CC3)csc2c1=O [Compound 65, (R)-2-(3-aminopiperidin-1-yl)-3-(2-cyanobenzyl)-N-cyclopropyl-4-oxo-3,4-dihydrothieno[3,2-d]pyrimidine-7-carboxamide]	44.8	75.5	137	N.I.	0.0302				
COC(=O)[C@H](Cc1ccc(O)cc1)NC(=O)c1csc2c(=O)n(Cc3ccccc3C#N)c(N3CCC[C@@H](N)C3)nc12 [Compound 62, (S)-methyl 2-(2-((R)-3-aminopiperidin-1-yl)-3-(2-cyanobenzyl)-4-oxo-3,4-dihydrothieno[3,2-d]pyrimidine-7-carboxamido)-3-(4-hydroxyphenyl)-propanoate]	12.3	37.4	54.8	N.I.	0.0492				
CC(=O)Nc1csc2c(=O)n(Cc3ccccc3C#N)c(N3CCC[C@@H](N)C3)nc12 [Compound 86, (R)-N-(2-(3-aminopiperidin-1-yl)-3-(2-cyanobenzyl)-4-oxo-3,4-dihydrothieno-[3,2-d]pyrimidin-7-yl)acetamide]	318	121		N.I.	0.0208		N.I.		
N#Cc1ccccc1Cn1c(N2CCC[C@@H](N)C2)nc2cc(C(=O)NCc3ccccc3Cl)sc2c1=O [Compound 110, (R)-2-(3-aminopiperidin-1-yl)-N-(2-chlorobenzyl)-3-(2-cyanobenzyl)-4-oxo-3,4-dihydrothieno[3,2-d]pyrimidine-6-carboxamide]	80.6	133	51.2	N.I.	0.0248				
COCCCNC(=O)c1cc2nc(N3CCC[C@@H](N)C3)n(Cc3ccccc3C#N)c(=O)c2s1 [Compound 112, (R)-2-(3-aminopiperidin-1-yl)-3-(2-cyanobenzyl)-N-(3-methoxypropyl)-4-oxo-3,4-dihydrothieno[3,2-d]-pyrimidine-6-carboxamide]	69.1	213	159	N.I.	0.0238				
N#Cc1ccccc1Cn1c(N2CCC[C@@H](N)C2)nc2cc(C(=O)N3CCS(=O)(=O)CC3)sc2c1=O [Compound 114, (R)-2-((2-(3-aminopiperidin-1-yl)-6-(1,1-dioxidothiomorpholine-4-carbonyl)-4-oxothieno[3,2-d]pyrimidin-3(4H)-yl)-methyl)benzonitrile]	56.2	52.2	307	N.I.	0.0222				
CN(C)C(=O)c1cc2nc(N3CCC[C@@H](N)C3)n(Cc3ccccc3C#N)c(=O)c2s1 [Compound 105, (R)-2-(3-aminopiperidin-1-yl)-3-(2-cyanobenzyl)-N,N-dimethyl-4-oxo-3,4-dihydrothieno[3,2-d]pyrimidine-6-carboxamide]		200	257	N.I.	0.027			N.I.	
CC(C)CCNC(=O)c1csc2c(=O)n(Cc3ccccc3C#N)c(N3CCC[C@@H](N)C3)nc12 [Compound 78, (R)-2-(3-aminopiperidin-1-yl)-3-(2-cyanobenzyl)-N-isopentyl-4-oxo-3,4-dihydrothieno[3,2-d]pyrimidine-7-carboxamlde]	60.4	64.3	407		0.0288	27.1			

More lines, in order of falling IC50 [5], values ahead:

IC50 [1] [µM]	IC50 [2] [µM]	IC50 [3] [µM]	DPP 7 IC50 [4]	IC50 [5] [µM]	IC50 [4] [µM]	DPP 9 IC50 [3]	DPP 8 IC50 [1]	FAP IC50 [2]	Structure (SMILES)
94	113		N.I.	0.0206		N.I.			N#Cc1ccccc1Cn1c(N2CCC[C@@H](N)C2)nc2cc(C(=O)NC3CCCCC3)sc2c1=O [Compound 119, (R)-2-(3-aminopiperidin-1-yl)-3-(2-cyanobenzyl)-N-cyclohexyl-4-oxo-3,4-dihydrothieno[3,2-d]pyrimidine-6-carboxamide]
			N.I.	0.0204		N.I.	N.I.	N.I.	N#Cc1ccccc1Cn1c(N2CCC[C@@H](N)C2)nc2cc(C(N)=O)sc2c1=O [Compound 97, (R)-2-(3-aminopiperidin-1-yl)-3-(2-cyanobenzyl)-4-oxo-3,4-dihydrothieno-[3,2-d]pyrimidine-6-carboxamide]
59.4	44	348	N.I.	0.0202					N#Cc1ccccc1Cn1c(N2CCC[C@@H](N)C2)nc2c(C(=O)NC3CCOCC3)csc2c1=O [Compound 81, (R)-2-(3-aminopiperidin-1-yl)-3-(2-cyanobenzyl)-4-oxo-N-(tetrahydro-2H-pyran-4-yl)-3,4-dihydrothieno[3,2-d]-pyrimidine-7-carboxamide]
38.9	136	94.5	N.I.	0.0186					CN1CCN(C(=O)c2csc3c(=O)n(Cc4ccccc4C#N)c(N4CCC[C@@H](N)C4)nc23)CC1 [Compound 70, (R)-2-((2-(3-aminopiperidin-1-yl)-7-(4-methylpiperazine-1-carbonyl)-4-oxothieno[3,2-d]pyrimidin-3(4H)-yl)-methyl)benzonitrile]
30.1	39.4	149	N.I.	0.0151					CC(C)NC(=O)c1csc2c(=O)n(Cc3ccccc3C#N)c(N3CCC[C@@H](N)C3)nc12 [Compound 72, (R)-2-(3-aminopiperidin-1-yl)-3-(2-cyanobenzyl)-N-isopropyl-4-oxo-3,4-dihydrothieno[3,2-d]pyrimidine-7-carboxamide]
47	40.9	226		0.0151	357				CC(C)CNC(=O)c1csc2c(=O)n(Cc3ccccc3C#N)c(N3CCC[C@@H](N)C3)nc12 [Compound 79, (R)-2-(3-aminopiperidin-1-yl)-3-(2-cyanobenzyl)-N-isobutyl-4-oxo-3,4-dihydrothieno[3,2-d]pyrimidine-7-carboxamide]
181	146	167	N.I.	0.0145					CC(C)NC(=O)c1cc2nc(N3CCC[C@@H](N)C3)n(Cc3ccccc3C#N)c(=O)c2s1 [Compound 115, (R)-2-(3-aminopiperidin-1-yl)-3-(2-cyanobenzyl)-N-isopropyl-4-oxo-3,4-dihydrothieno[3,2-d]pyrimidine-6-carboxamide]
24.9	28.1	53	N.I.	0.0137					COC(=O)[C@H](Cc1ccccc1)NC(=O)c1csc2c(=O)n(Cc3ccccc3C#N)c(N3CCC[C@@H](N)C3)nc12 [Compound 67, (S)-methyl 2-(2-((R)-3-aminopiperidin-1-yl)-3-(2-cyanobenzyl)-4-oxo-3,4-dihydrothieno[3,2-d]pyrimidine-7-carboxamido)-3-phenylpropanoate]
			N.I.	0.0116		N.I.	N.I.	N.I.	CC(=O)OCc1cc2nc(N3CCC[C@@H](N)C3)n(Cc3ccccc3C#N)c(=O)c2s1 [Compound 96, (R)-(2-(3-aminopiperidin-1-yl)-3-(2-cyanobenzyl)-4-oxo-3,4-dihydrothieno-[3,2-d]pyrimidin-6-yl)methyl acetate]
9.08	14.6	66.8		0.00892	159				N#Cc1ccccc1Cn1c(N2CCC[C@@H](N)C2)nc2c(C(=O)NCC3CC3)csc2c1=O [Compound 73, (R)-2-(3-aminopiperidin-1-yl)-3-(2-cyanobenzyl)-N-(cyclopropylmethyl)-4-oxo-3,4-dihydrothieno[3,2-d]-pyrimidine-7-carboxamide]
